Literature values in patent publication US20070203078A1, “METHOD FOR THE TREATMENT AND DIAGNOSIS OF CERTAIN PSYCHIATRIC DISORDERS RELATED TO THE MENSTRUAL CYCLE” (THE REGENTS OF THE UNIVERSITY OF CALIFORNIA, priority 2004, published 2007).

Biological target: T1, δ subunit-containing GABAARs (Mus musculus, UniProt P22933)
T1 construct: tonic conductance mediated by δ subunit-containing GABAARs in several classes of neurons; host or cells: neurons (cerebellar granule cells, dentate gyrus granule cells and interneurons are named)
T1 sequence (P22933 25-449): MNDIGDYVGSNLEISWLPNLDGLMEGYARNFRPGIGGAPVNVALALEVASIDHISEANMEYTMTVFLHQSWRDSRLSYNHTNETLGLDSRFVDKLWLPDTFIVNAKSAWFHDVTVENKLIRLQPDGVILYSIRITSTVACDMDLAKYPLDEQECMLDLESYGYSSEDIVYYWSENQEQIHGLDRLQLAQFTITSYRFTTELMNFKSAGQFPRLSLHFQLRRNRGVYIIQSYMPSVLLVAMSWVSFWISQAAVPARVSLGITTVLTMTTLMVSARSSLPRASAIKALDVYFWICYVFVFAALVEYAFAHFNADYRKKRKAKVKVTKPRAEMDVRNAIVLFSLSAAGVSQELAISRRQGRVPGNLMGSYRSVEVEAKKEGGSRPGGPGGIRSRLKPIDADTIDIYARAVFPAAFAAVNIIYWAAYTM
Details: THDOC in the physiological range (10 nM)

Q: For `C[C@]12CC[C@@H](O)C[C@H]1CC[C@@H]1[C@@H]2CC[C@]2(C)[C@@H](C(=O)CO)CC[C@@H]12` [THDOC], which “effect on synaptic currents” value is on record?
A: no effect

Q: And the “effect on tonic conductance mediated by δ subunit-containing GABAARs” value (several classes of neurons)?
A: significantly potentiate
